These results are taken from ChEMBL document CHEMBL1125047, “Novel glutamic acid derived cholecystokinin receptor ligands” (J Med Chem, 1990).

Molecules are shown by their SMILES.

This assay deals with T1, Cholecystokinin receptor type A (Rattus norvegicus, UniProt P30551).
T1 sequence (P30551 whole entry): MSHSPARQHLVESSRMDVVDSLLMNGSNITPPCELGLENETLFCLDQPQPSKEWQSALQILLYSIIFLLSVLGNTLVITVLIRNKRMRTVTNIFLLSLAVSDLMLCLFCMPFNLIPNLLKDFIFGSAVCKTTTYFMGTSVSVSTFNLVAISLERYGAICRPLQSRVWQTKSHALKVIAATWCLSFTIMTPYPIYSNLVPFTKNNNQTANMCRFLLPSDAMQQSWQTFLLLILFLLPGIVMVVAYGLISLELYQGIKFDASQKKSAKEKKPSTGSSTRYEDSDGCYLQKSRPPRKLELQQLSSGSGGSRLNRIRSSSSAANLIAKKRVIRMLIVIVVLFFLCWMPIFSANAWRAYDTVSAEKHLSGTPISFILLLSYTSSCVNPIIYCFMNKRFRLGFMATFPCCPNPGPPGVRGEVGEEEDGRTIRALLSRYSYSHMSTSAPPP
Put plainly: Inhibition of binding of [125I]- CCK-33 to rat pancreas.
Regarding `CCCCCN(CCCCC)C(=O)C(CCC(=O)OCc1ccccc1)NC(=O)Nc1ccc(Cl)cc1` (stereo not given), the IC50 came out at 9300 nM.

`CCCCCN(CCCCC)C(=O)C(CCC(=O)OCC)NC(=O)Nc1ccc(Cl)cc1` (stereo not given) showed an IC50 of 1200 nM.

Consider `CCCCCN(CCCCC)C(=O)C(CCC(=O)N1CCCC1)NC(=O)Nc1ccc(Cl)cc1` (stereo not given), for which the concentration for half-maximal inhibition (IC50) turned out to be 680 nM.

On to `O=C(O)CCC(NC(=O)c1cc2ccccc2[nH]1)C(=O)N(C1CCCCC1)C1CCCCC1` (single isomer, unassigned), for which the half-inhibitory concentration (IC50) was 59 nM.

Molecule `CCCCCN(CCCCC)C(=O)C(CCC(=O)O)NC(=O)Nc1cccc(OC)c1` (single isomer, unassigned; 13) displayed an IC50 of 540 nM.

Consider `CCCCCN(CCCCC)C(=O)C(CCC(=O)O)NC(=O)Nc1cccc(OC)c1` (single isomer, unassigned; 14), for which the IC50 was found to be 4.5 nM.

The molecule `CCCCCN(CCCCC)C(=O)C(CCC(=O)N1CCCC1)NC(=O)Nc1cccc(OC)c1` (single isomer, unassigned; 15) came in with a concentration for half-maximal inhibition (IC50) of 170 nM.

For `CCCCCN(CCCCC)C(=O)C(CCC(=O)N1CCCC1)NC(=O)Nc1cccc(OC)c1` (single isomer, unassigned; 16), the IC50 was determined as 120 nM.

Molecule `CCCCCN(CCCCC)C(=O)C(CCC(=O)O)NC(=O)c1ccc(Cl)c(Cl)c1` (stereo not given) [LORGLUMIDE] yielded an IC50 of 18 nM.

The molecule `CCCN(CCC)C(=O)C(CCC(=O)O)NC(=O)c1ccccc1` (stereo not given) [PROGLUMIDE] registered an IC50 of 250000 nM.

As usually defined, the IC50 is the midpoint of a concentration-inhibition curve. Low values mean greater potency, high ones weaker potency.
